Laboratory results: patent US20250136596A1, “MEMBRANE-ASSOCIATED TYROSINE- AND THREONINE-SPECIFIC CDC2-INHIBITORY KINASE (PKMYT1) INHIBITORS AND USES THEREOF” (Insilico Medicine IP Limited, priority 2022, published 2025)

Molecular target: PKMYT1 (Homo sapiens (Human), UniProt Q99640)
Assay: PKMYT1 HTRF Assay
Assay type: binding
Conditions: Tracer 178, GST-Tb; compound 10 μM to 0.5 nM; read-out: MYT1 HTRF IC50
Method in brief: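 Compound (final 10 μM to 0.5 nM) preincubated with PKMYT1 enzyme 15 min at 25° C, then Tracer 178 added for 60 min at 25° C. GST-Tb added, 15 min at 25° C, before HTRF readout.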

Chain of PKMYT1 (Q99640 whole entry): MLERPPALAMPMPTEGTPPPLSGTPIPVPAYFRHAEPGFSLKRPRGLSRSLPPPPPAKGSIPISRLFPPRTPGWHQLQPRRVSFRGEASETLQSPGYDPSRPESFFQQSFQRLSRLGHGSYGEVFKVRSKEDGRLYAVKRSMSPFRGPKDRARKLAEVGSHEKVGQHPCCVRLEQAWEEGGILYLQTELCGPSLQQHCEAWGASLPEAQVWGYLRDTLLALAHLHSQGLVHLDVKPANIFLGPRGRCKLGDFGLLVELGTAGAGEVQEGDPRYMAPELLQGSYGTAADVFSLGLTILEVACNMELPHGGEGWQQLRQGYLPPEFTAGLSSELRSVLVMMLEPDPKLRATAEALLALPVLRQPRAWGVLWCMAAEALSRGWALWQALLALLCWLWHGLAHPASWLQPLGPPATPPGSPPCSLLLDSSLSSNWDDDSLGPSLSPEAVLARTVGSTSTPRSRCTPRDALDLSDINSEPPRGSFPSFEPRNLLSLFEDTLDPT

SMILES: Cc1ccc(O)c(C)c1-c1cnc2[nH]c(-c3cnc(C(F)(F)F)nc3)cc2c1C#N [Example 55, 5-(3-hydroxy-2,6-dimethylphenyl)-2-(2-(trifluoromethyl)pyrimidin-5-yl)-1H-pyrrolo[2,3-b]pyridine-4-carbonitrile]
- IC50: < 10 nM

SMILES: Cc1ccc(O)c(C)c1-c1cnc2[nH]c(-c3cnc(NC4CC4)nc3)c(Cl)c2c1C#N [Example 48, (R)-3-chloro-2-(2-(cyclopropylamino)pyrimidin-5-yl)-5-(3-hydroxy-2,6-dimethylphenyl)-1H-pyrrolo[2,3-b]pyridine-4-carbonitrile]
- IC50: < 10 nM

SMILES: Cc1ccc(O)c(C)c1-c1cnc2[nH]c(-c3cnc(CN4CCCC4)nc3)cc2c1C#N [Example 93, (R)-5-(3-hydroxy-2,6-dimethylphenyl)-2-(2-(pyrrolidin-1-ylmethyl)pyrimidin-5-yl)-1H-pyrrolo[2,3-b]pyridine-4-carbonitrile]
- IC50: < 10 nM

SMILES: Cc1ncc(-c2cc3nc(-c4c(C)ccc(O)c4C)cnc3[nH]2)cn1 [Example 15, 2,4-dimethyl-3-(6-(2-methylpyrimidin-5-yl)-5H-pyrrolo[2,3-b]pyrazin-2-yl)phenol]
- IC50: 10 to 50 nM

SMILES: Cc1ccc(O)c(C)c1-c1cnc2[nH]c(-c3cnc(N4CCC4)nc3)cc2c1C#N [Example 49, (R)-2-(2-(azetidin-1-yl)pyrimidin-5-y1)-5-(3-hydroxy-2,6-dimethylphenyl)-1H-pyrrolo[2,3-b]pyridine-4-carbonitrile]
- IC50: < 10 nM

SMILES: Cc1ccc(O)c(C)c1-c1cnc2[nH]c(-c3cnc(CN)nc3)cc2c1C#N [Example 129, (S)-2-(2-(aminomethyl)pyrimidin-5-yl)-5-(3-hydroxy-2,6-dimethylphenyl)-1H-pyrrolo[2,3-b]pyridine-4-carbonitrile]
- IC50: < 10 nM

SMILES: CC(=O)N1CC=C(c2cc3cc(-c4c(C)ccc(O)c4C)cnc3[nH]2)CC1 [Example 6, 1-(4-(5-(3-hydroxy-2,6-dimethylphenyl)-1H-pyrrolo[2,3-b]pyridin-2-yl)-3,6-dihydropyridin-1 (2H)-yl)ethan-1-one]
- IC50: 50 to 500 nM

SMILES: Cc1ncc(-c2cc3c(C(N)=O)c(-c4c(C)ccc(O)c4C)cnc3[nH]2)cn1 [Example 34, 5-(3-hydroxy-2,6-dimethylphenyl)-2-(2-methylpyrimidin-5-yl)-1H-pyrrolo[2,3-b]pyridine-4-carboxamide]
- IC50: 50 to 500 nM

SMILES: C#Cc1cc(-c2cc3c(C#N)c(-c4c(C)ccc(O)c4C)cnc3[nH]2)cnc1N [Example 87, (R)-2-(6-amino-5-ethynylpyridin-3-yl)-5-(3-hydroxy-2,6-dimethylphenyl)-1H-pyrrolo[2,3-b]pyridine-4-carbonitrile]
- IC50: < 10 nM

SMILES: Cc1ncc(-c2[nH]c3ncc(-c4c(C)ccc(O)c4C)c(C#N)c3c2C#CC(C)(C)O)cn1 [Example 110, (S)-5-(3-hydroxy-2,6-dimethylphenyl)-3-(3-hydroxy-3-methylbut-1-yn-1-yl)-2-(2-methylpyrimidin-5-yl)-1H-pyrrolo[2,3-b]pyridine-4-carbonitrile]
- IC50: < 10 nM

SMILES: Cc1ncc(-c2cc3c(C(F)(F)F)c(-c4c(C)ccc(O)c4C)cnc3[nH]2)cn1 [Example 31, (R)-2,4-dimethyl-3-(2-(2-methylpyrimidin-5-yl)-4-(trifluoromethyl)-1H-pyrrolo[2,3-b]pyridin-5-yl)phenol]
- IC50: < 10 nM

SMILES: Cc1ccc(O)c(C)c1-c1cnc2[nH]c(-c3cnc(N)nc3)cc2c1C#N [Example 39, (R)-2-(2-aminopyrimidin-5-yl)-5-(3-hydroxy-2,6-dimethylphenyl)-1H-pyrrolo[2,3-b]pyridine-4-carbonitrile]
- IC50: < 10 nM

SMILES: Cc1ccc(O)c(C)c1-c1cnc2[nH]c(-c3ccc(N4CCN(C)CC4)nc3)cc2c1 [Example 4, 2,4-dimethyl-3-(2-(6-(4-methylpiperazin-1-yl)pyridin-3-yl)-1H-pyrrolo[2,3-b]pyridin-5-yl)phenol]
- IC50: 50 to 500 nM
